Key:
[1] = system: miR-29a; assay: qRT-PCR of miR-29 expression level in H9c2 cells; assay type: cell-based, rat
Experimental: (§1) The cardiac muscle cell H9c2 was maintained in complete growth medium, supplemented with 10% FBS, penicillin G (100 IU/ml). Cells were incubated at 37° C. in a humidified atmosphere (5% CO2/95% air). Passages 5-9 were used for all experiments. Exponentially growing H9c2 cells were seeded at 1×10^5 per 100 mm plate and incubated until 60-70% confluent. Cells were treated with: 1) vehicle alone (2% ethanol); 2) 10 nM PIO; 3) 1 μM GW9662; 4) 10 nM PIO+1 μM GW9662. PIO was dissolved in 70% ethanol. 24 hours later, cells were harvested and total RNA enriched with small RNAs was isolated using mirVana miRNA Isolation Kit (Ambion). MiR-29 levels were measured using the mirVana qRT-PCR miRNA Detection Kit (Ambion). Reactions containing mirVana qRT-PCR Primer Sets were specific for rat miR-29. The appropriate cycle threshold (Ct) was determined by using the automatic baseline determination feature. The expression of miR-29 between RNA samples was calculated. Data were normalized by evaluating U6 expression.

[2] = system: miR-29c; assay: qRT-PCR of miR-29 expression level in H9c2 cells; assay type: cell-based, rat
Experimental: as §1

[3] = 10 nM PIO + 1 μM GW9662, 24 hours
[4] = single agent, 24 hours, 10 nM PIO or 1 μM GW9662, vs vehicle control

With `O=C(Nc1ccccc1)c1cc([N+](=O)[O-])ccc1Cl` [GW9662] the “effect of PIO on miR-29a level in H9c2 cells (qRT-PCR)” value [1, 3] was “block the effect of PIO”, the “miR-29a level in H9c2 cells (qRT-PCR)” value [1, 4] was “no effect” and the “effect of PIO on miR-29c level in H9c2 cells (qRT-PCR)” value [2, 3] was “block the effect of PIO”. The “miR-29c level in H9c2 cells (qRT-PCR)” value [2, 4] was “no effect”.
